Experiments:
human V2 receptor = molecular target: T1, human V2 receptor (Homo sapiens, UniProt P30518); assay: Cellular in vitro assay for vasopressin receptor activity, V2 cell line (CRE-luciferase); format: cell-based; conditions: CHO cell line transfected with human V2 receptor; agonist [Arg8]-vasopressin at EC50 concentration, 3 hours; read-out: IC50hV2
T1 construct: expressed in transfected cells; host or cells: CHO K1 (ATCC) line expressing firefly luciferase under a CRE-responsive promoter
T1 sequence (P30518 whole entry): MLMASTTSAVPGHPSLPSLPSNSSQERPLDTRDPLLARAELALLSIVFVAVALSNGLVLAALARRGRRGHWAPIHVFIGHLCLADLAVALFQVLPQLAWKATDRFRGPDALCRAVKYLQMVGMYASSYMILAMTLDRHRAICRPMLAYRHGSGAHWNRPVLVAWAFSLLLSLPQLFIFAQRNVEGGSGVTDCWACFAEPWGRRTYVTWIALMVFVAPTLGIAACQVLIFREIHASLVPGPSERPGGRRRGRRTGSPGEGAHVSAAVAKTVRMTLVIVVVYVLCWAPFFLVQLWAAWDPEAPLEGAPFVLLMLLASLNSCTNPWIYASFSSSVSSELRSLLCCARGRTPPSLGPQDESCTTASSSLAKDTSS
Procedure: (§1) B-1. Cellular In Vitro Assay for Determining Vasopressin Receptor Activity
(§2) The identification of agonists and antagonists of the V1a and V2 vasopressin receptors from humans, rats and dogs as well as the quantification of the activity of the compounds of the invention is carried out using recombinant cell lines. These cell lines originally derive from a hamster's ovary epithelial cell (Chinese Hamster Ovary, CHO K1, ATCC: American Type Culture Collection, Manassas, Va. 20108, USA). The test cell lines constitutively express the human, rat or dog V1a or V2 receptors. In case of the Gαq-coupled V1a receptors, cells are also stably transfected with a modified form of the calcium-sensitive photoproteins aequorin (human and rat V1a) or obelin (dog V1a), which, after reconstitution with the cofactor coelenterazine, emit light when there are increases in free calcium concentrations [Rizzuto R, Simpson A W, Brini M, Pozzan T, Nature 358, 325-327 (1992); Illarionov B A, Bondar V S, Illarionova V A, Vysotski E S, Gene 153 (2), 273-274 (1995)]. The resulting vasopressin receptor cells react to stimulation of the recombinantly expressed V1a receptors by intracellular release of calcium ions, which can be quantified by the resulting photoprotein luminescence. The Gs-coupled V2 receptors are stably transfected into cell lines expressing the gene for firefly luciferase under control of a CRE-responsible promoter. Activation of V2 receptors induces the activation of the CRE-responsive promoter via cAMP increase, thereby inducing the expression of firefly luciferase. The light emitted by photoproteins of V1a cell lines as well as the light emitted by firefly luciferase of V2 cell lines corresponds to the activation or inhibition of the respective vasopressin receptor. The bioluminescence of the cell lines is detected using a suitable luminometer [Milligan G, Marshall F, Rees S, Trends in Pharmacological Sciences 17, 235-237 (1996)].
Vasopressin V2 Receptor Cell Lines:
On the day before the assay, the cells are plated out in culture medium (DMEM/F12, 2% FCS, 2 mM glutamine, 10 mM HEPES) in 384-well microtiter plates and kept in a cell incubator (96% humidity, 5% v/v CO2, 37° C.). On the day of the assay, test compounds in various concentrations and the agonist [Arg^8]-vasopressin at EC50 concentration are added together to the wells, and plates are incubated for 3 hours in a cell incubator. Upon addition of the cell lysis reagent Triton™ and the substrate luciferin, luminescence of firefly luciferase is measured in a luminometer.
(§3) Table 1A below lists individual IC50 values for the compounds of the invention (including racemic mixtures as well as separated enantiomers) that were obtained from cell lines transfected with the human V1a or V2 receptor: […]

human V1a receptor = molecular target: T2, human V1a receptor (Homo sapiens, UniProt P37288); assay: Cellular in vitro assay for vasopressin receptor activity, V1a cell line (aequorin luminescence); format: cell-based; conditions: for IC50: CHO cell line transfected with human V1a receptor, agonist [Arg8]-vasopressin at EC50 concentration, read-out: IC50hV1a; for ratio IC50 hV2/hV1a: ratio of the IC50 on human V2 to the IC50 on human V1a
T2 construct: expressed in transfected cells; host or cells: CHO K1 (ATCC), also stably transfected with a modified aequorin
T2 sequence (P37288 whole entry): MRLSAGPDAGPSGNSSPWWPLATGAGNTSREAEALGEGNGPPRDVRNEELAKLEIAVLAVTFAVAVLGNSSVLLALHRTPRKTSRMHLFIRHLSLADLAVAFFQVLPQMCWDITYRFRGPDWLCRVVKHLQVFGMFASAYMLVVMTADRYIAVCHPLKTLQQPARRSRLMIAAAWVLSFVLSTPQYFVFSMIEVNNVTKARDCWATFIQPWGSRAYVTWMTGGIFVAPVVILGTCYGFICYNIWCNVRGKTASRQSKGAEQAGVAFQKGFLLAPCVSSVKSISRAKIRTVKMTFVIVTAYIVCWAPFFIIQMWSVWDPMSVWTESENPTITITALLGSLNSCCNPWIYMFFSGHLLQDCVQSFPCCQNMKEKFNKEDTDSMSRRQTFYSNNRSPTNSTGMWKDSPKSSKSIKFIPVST
Procedure: as §1, §2
Vasopressin V1a Receptor Cell Lines:
On the day before the assay, the cells are plated out in culture medium (DMEM/F12, 2% FCS, 2 mM glutamine, 10 mM HEPES, 5 μg/ml coelenterazine) in 384-well microtiter plates and kept in a cell incubator (96% humidity, 5% v/v CO2, 37° C.). On the day of the assay, test compounds in various concentrations are placed for 10 minutes in the wells of the microtiter plate before the agonist [Arg^8]-vasopressin at EC50 concentration is added. The resulting light signal is measured immediately in a luminometer.
as §3

Row | SMILES | IC50 (human V2 receptor) | IC50 (human V1a receptor) | ratio IC50 hV2/hV1a (human V1a receptor)
1 | Cc1ccccc1-n1nc(Cn2nc(-c3ccc(Cl)cc3)n(C[C@H](O)C(F)(F)F)c2=O)nc1C(C)F (mixture of isomers) [Example 34, 5-(4-Chlorophenyl)-2-({5-[1-fluoroethyl]-1-(2-methylphenyl)-1H-1,2,4-triazol-3-yl}methyl)-4-[(2S)-3,3,3-trifluoro-2-hydroxypropyl]-2,4-dihydro-3H-1,2,4-triazol-3-one] | 0.84 nM | 0.71 nM | 1.2
2 | CC(F)c1nc(Cn2nc(-c3ccc(Cl)cc3)n(C[C@H](O)C(F)(F)F)c2=O)nn1-c1ccccc1[N+](=O)[O-] (mixture of isomers) [Example 37, 5-(4-Chlorophenyl)-2-({5-[1-fluoroethyl]-1-(2-nitrophenyl)-1H-1,2,4-triazol-3-yl}methyl)-4-[(2S)-3,3,3-trifluoro-2-hydroxypropyl]-2,4-dihydro-3H-1,2,4-triazol-3-one] | 10 nM | 3.35 nM | 3.0
3 | CC(F)c1nc(Cn2nc(-c3ccc(Cl)cc3)n(C[C@H](O)C(F)(F)F)c2=O)nn1-c1ccccc1C#N (mixture of isomers) [Example 38, 2-{3-({3-(4-Chlorophenyl)-5-oxo-4-[(2S)-3,3,3-trifluoro-2-hydroxypropyl]-4,5-dihydro-1H-1,2,4-triazol-1-yl}methyl)-5-[1-fluoroethyl]-1H-1,2,4-triazol-1-yl}benzonitrile] | 165 nM | 82 nM | 2.0
4 | CC(F)c1nc(Cn2nc(-c3ccc(Cl)cc3)n(C[C@H](O)C(F)(F)F)c2=O)nn1-c1ccccc1S(N)(=O)=O (mixture of isomers) [Example 41, 2-{3-({3-(4-Chlorophenyl)-5-oxo-4-[(2S)-3,3,3-trifluoro-2-hydroxypropyl]-4,5-dihydro-1H-1,2,4-triazol-1-yl}methyl)-5-[1-fluoroethyl]-1H-1,2,4-triazol-1-yl}benzenesulfonamide] | 292 nM | 84.8 nM | 3.5
5 | CCOc1ccccc1-n1nc(Cn2nc(-c3ccc(Cl)cc3)n(C[C@H](O)C(F)(F)F)c2=O)nc1C(C)F (mixture of isomers) [Example 42, 5-(4-Chlorophenyl)-2-({1-(2-ethoxyphenyl)-5-[1-fluoroethyl]-1H-1,2,4-triazol-3-yl}methyl)-4-[(2S)-3,3,3-trifluoro-2-hydroxypropyl]-2,4-dihydro-3H-1,2,4-triazol-3-one] | 4.95 nM | 1.9 nM | 2.6
6 | CC(F)c1nc(Cn2nc(-c3ccc(Cl)cc3)n(C[C@H](O)C(F)(F)F)c2=O)nn1-c1c(Cl)cccc1Cl (mixture of isomers) [Example 43, 5-(4-Chlorophenyl)-2-({1-(2,6-dichlorophenyl)-5-[1-fluoroethyl]-1H-1,2,4-triazol-3-yl}methyl)-4-[(2S)-3,3,3-trifluoro-2-hydroxypropyl]-2,4-dihydro-3H-1,2,4-triazol-3-one] | 3.1 nM | 2.05 nM | 1.5
7 | CC(F)c1nc(Cn2nc(-c3ccc(Cl)cc3)n(C[C@H](O)C(F)(F)F)c2=O)nn1-c1c(F)cccc1Cl (mixture of isomers) [Example 44, 2-({1-(2-chloro-6-fluorophenyl)-5-[1-fluoroethyl]-1H-1,2,4-triazol-3-yl}methyl)-5-(4-Chlorophenyl)-4-[(2S)-3,3,3-trifluoro-2-hydroxypropyl]-2,4-dihydro-3H-1,2,4-triazol-3-one] | 2.93 nM | 1.04 nM | 2.8
8 | CC(F)c1nc(Cn2nc(-c3ccc(Cl)cc3)n(C[C@H](O)C(F)(F)F)c2=O)nn1-c1c(F)cccc1F (mixture of isomers) [Example 45, 5-(4-Chlorophenyl)-2-({1-(2,6-difluorophenyl)-5-[1-fluoroethyl]-1H-1,2,4-triazol-3-yl}methyl)-4-[(2S)-3,3,3-trifluoro-2-hydroxypropyl]-2,4-dihydro-3H-1,2,4-triazol-3-one] | 2.97 nM | 2.2 nM | 1.3
9 | Cc1cccc(C)c1-n1nc(Cn2nc(-c3ccc(Cl)cc3)n(C[C@H](O)C(F)(F)F)c2=O)nc1C(C)F (mixture of isomers) [Example 46, 5-(4-Chlorophenyl)-2-({1-(2,6-dimethylphenyl)-5-[1-fluoroethyl]-1H-1,2,4-triazol-3-yl}methyl)-4-[(2S)-3,3,3-trifluoro-2-hydroxypropyl]-2,4-dihydro-3H-1,2,4-triazol-3-one] | 1.74 nM | 3.2 nM | 0.5
10 | CC(C)c1ccccc1-n1nc(Cn2nc(-c3ccc(Cl)cc3)n(C[C@H](O)C(F)(F)F)c2=O)nc1C(C)F (mixture of isomers) [Example 47, 5-(4-Chlorophenyl)-2-({5-[1-fluoroethyl]-1-[2-(propan-2-yl)phenyl]-1H-1,2,4-triazol-3-yl}methyl)-4-[(2S)-3,3,3-trifluoro-2-hydroxypropyl]-2,4-dihydro-3H-1,2,4-triazol-3-one] | 35 nM | 30 nM | 1.2
11 | CCc1cccc(C)c1-n1nc(Cn2nc(-c3ccc(Cl)cc3)n(C[C@H](O)C(F)(F)F)c2=O)nc1C(C)F (mixture of isomers) [Example 48, 5-(4-Chlorophenyl)-2-({1-(2-ethyl-6-methylphenyl)-5-[1-fluoroethyl]-1H-1,2,4-triazol-3-yl}methyl)-4-[(2S)-3,3,3-trifluoro-2-hydroxypropyl]-2,4-dihydro-3H-1,2,4-triazol-3-one] | 4.9 nM | 30.5 nM | 0.2
12 | CSc1ccccc1-n1nc(Cn2nc(-c3ccc(Cl)cc3)n(C[C@H](O)C(F)(F)F)c2=O)nc1C(C)F (mixture of isomers) [Example 49, 5-(4-Chlorophenyl)-2-({5-[1-fluoroethyl]-1-[2-(methylsulfanyl)phenyl]-1H-1,2,4-triazol-3-yl}methyl)-4-[(2S)-3,3,3-trifluoro-2-hydroxypropyl]-2,4-dihydro-3H-1,2,4-triazol-3-one] | 0.45 nM | 0.85 nM | 0.5
13 | CC(F)c1nc(Cn2nc(-c3ccc(Cl)cc3)n(C[C@H](O)C(F)(F)F)c2=O)nn1-c1ccccc1Cl (single isomer, unassigned) [Example 2] | 1.34 nM | 0.36 nM | 3.8
14 | CC(F)c1nc(Cn2nc(-c3ccc(Cl)cc3)n(C[C@H](O)C(F)(F)F)c2=O)nn1-c1ccccc1Cl (single isomer, unassigned) [Example 3] | 0.93 nM | 0.9 nM | 1.0
15 | CC(F)c1nc(Cn2nc(-c3ccc(Cl)cc3)n(C[C@H](O)C(F)(F)F)c2=O)nn1-c1cnccc1Cl (single isomer, unassigned) [Example 5] | 74.8 nM | 6.95 nM | 10.8
16 | CC(F)c1nc(Cn2nc(-c3ccc(Cl)cc3)n(C[C@H](O)C(F)(F)F)c2=O)nn1-c1cnccc1Cl (single isomer, unassigned) [Example 6] | 2.37 nM | 0.48 nM | 5.0
17 | CC(F)c1nc(Cn2nc(-c3ccc(Cl)cc3)n(C[C@H](O)C(F)(F)F)c2=O)nn1-c1cnccc1C(F)(F)F (single isomer, unassigned) [Example 8] | 19.8 nM | 1.25 nM | 15.8
18 | CC(F)c1nc(Cn2nc(-c3ccc(Cl)cc3)n(C[C@H](O)C(F)(F)F)c2=O)nn1-c1cnccc1C(F)(F)F (single isomer, unassigned) [Example 9] | 7.05 nM | 1 nM | 7.1
19 | CC(F)c1nc(Cn2nc(-c3ccc(Cl)cc3)n(C[C@H](O)C(F)(F)F)c2=O)nn1-c1ncccc1C(F)(F)F (single isomer, unassigned) [Example 11] | 73.8 nM | 13.5 nM | 5.5

Source: US10525041B2, “Fluoroalkyl-substituted aryltriazole derivatives and uses thereof” (BAYER PHARMA AKTIENGESELLSCHAFT, priority 2016, dated 2020)
